Experimental data reported in patent US20250171511A1, “ANTIVIRAL PEPTIDES AND METHODS OF USE THEREOF” (Versitech Limited, priority 2021, published 2025).
“Also recorded” adds a separate entry of the source. Where two headings read alike, the source gives them in different places. Where no end group is shown, it is not given here. 4MPA = not defined here

Tests used:
SARS-CoV-2 (B.1.1.63) [1] = experiment: Post-infection treatment, viral titers in supernatants; settings: 4H30 added at 6 hpi
SARS-CoV-2 [2] = experiment: Nucleoprotein (NP) immunofluorescence assay; assay type: cell-based; settings: VeroE6; virus pretreated; compared with untreated virus
SARS-CoV-2 [3] = experiment: Viral release assay; assay type: cell-based
SARS-CoV-2 (B.1.1.63) [4] = experiment: Pre-exposure antiviral activity in hamsters; assay type: in vivo, hamster
SARS-CoV-2 [5] = assay type: cell-based
H1N1 virus = experiment: H1N1 plaque reduction assay; assay type: cell-based; settings: virus treated in PBS 30 min, VeroE6
[6] = tested on: fusion mediated by spike-Calu-3 cells; experiment: Spike mediated cell fusion assay with Calu-3 cells; assay type: cell-based; settings: TMPRSS2 pathway

## GAICHPVFCPRRYKQIGTCGLPGTKCCKKP-4MPA (cysteine pairing not given here; reading uncertain; also: printed as GAICHPVFCPRRYKQIGTCGLPGTKCCKKP-4MPA) [Peptide 4H30]
SARS-CoV-2 (B.1.1.63) [1]; Calu-3 cells
  SARS-CoV-2 replication: significantly inhibited
SARS-CoV-2 (B.1.1.63) [1]; VeroE6 cells
  SARS-CoV-2 replication: significantly inhibited
SARS-CoV-2 [2]
  anti-NP staining, viral replication: viral replication was significantly inhibited and restricted in very few cells
SARS-CoV-2 [3]
  intracellular replicative process: not on the intracellular replicative process
  viral release, viral load in supernatants: significantly inhibit viral release; also recorded: significantly inhibited SARS-CoV-2 release
SARS-CoV-2 [3]; 4H30 pretreated by CS or HS
  antiviral activity of 4H30 on viral release: significantly reduced
SARS-CoV-2 [3]; 4H30 with BSA
  inhibitory activity of 4H30 on SARS-CoV-2 release: did not significantly affect
SARS-CoV-2 (B.1.1.63) [4]; 4H30-0.05
  syncytia and epithelial cell disorder in bronchial tree: not found
SARS-CoV-2 (B.1.1.63) [4]; hamster, in vivo
  SARS-CoV-2 replication in lungs: significantly inhibited SARS-CoV-2 replication
  antiviral activity: did not show antiviral activity
  reduction of viral replication: 2.3 fold
  viral replication in lungs: significantly inhibited viral replication
SARS-CoV-2 [5]; 4H30 pretreated by GAGs
  attachment of SARS-CoV-2 to cells: significantly reduced
SARS-CoV-2 [5]; A549 (ACE2^−) cells treated by 4H30
  attachment of SARS-CoV-2 to cells: significantly increased
SARS-CoV-2 [5]; Calu-3 (ACE2^+) cells treated by 4H30
  attachment of SARS-CoV-2 to cells: significantly increased
SARS-CoV-2 [5]; cells pretreated by Chondroitinase ABC and Heparinase
  attachment of SARS-CoV-2 to cells: significantly reduced
H1N1 virus
  H1N1 virus replication: significantly inhibited
[6]
  fusion mediated by spike-Calu-3 cells: did not inhibit
